Test results as given in patent US9101627B2, “Pharmaceutical compositions containing bradykinin antagonists and hyaluronic acid, and uses thereof” (ISTITUTO LUSO FARMACO D'ITALIA S.P.A., priority 2007, dated 2015).

Legend:
[1] = test system: experimental model of osteoarthritis induced by intra-articular injection of sodium monoiodoacetate (MIA); test: MIA-induced osteoarthritis model, incapacitance test (weight imbalance between paws); format: in vivo; conditions: rat; for time of maximal inhibitory effect after administration / reduction of the pain caused by osteoarthritis: 3 μg/25 μl i.a., single compound; for reduction of the pain caused by osteoarthritis: 7 days after MIA; for inhibitory effect at higher dose: 10 μg/25 μl i.a. versus 3 μg/25 μl; for duration of antinociceptive effect: single compound i.a.
Experimental: The activity of MEN16132, icatibant and hyaluronic acid was measured in an experimental model of osteoarthritis induced by intra-articular injection of sodium monoiodoacetate (MIA) which inhibits glycolysis in the chondrocytes, thus causing damage and death to those cells with consequent degeneration of the joint surface, in a very similar way to human osteoarthritis.
MIA (1 mg/25 μl) was injected into the intra-articular space of the right knee of the rat, while 25 μl of saline was administered to the left knee as internal control.
The administration of MIA causes pain, difficulty of walking and inability to bear weight on the paw corresponding to the treated knee; the weight of the body therefore falls mainly on the left paw, to an extent directly proportional to the pain perceived. This effect persists for many weeks. The imbalance in weight on the two weight-bearing paws, evaluated in a non-invasive way with the incapacitance test, measures the pain resulting from the joint damage (osteoarthritis) induced by MIA.
The purpose of this test was to evaluate the protective effect of bradykinin B2 receptor antagonists against experimental osteoarthritis, and to establish the effect of co-administration of hyaluronic acid.
Seven days after the treatment with MIA, the compounds under study were injected, and the test was repeated at various times to measure the painkilling effect and its duration.

[2] = test system: patients with symptomatic OA of the knee; conditions: 58 patients, single intra-articular administration 90 μg/1 ml; cited from earlier work
[3] = test system: patients with OA of the knee; conditions: intra-articular, 3×500 μg injections one week apart; cited from earlier work

SMILES | time of maximal inhibitory effect after administration [1] | reduction of the pain caused by osteoarthritis [1] | inhibitory effect at higher dose [1] | duration of antinociceptive effect [1] | intensity of pain in the knee versus placebo [2] | duration of analgesic response after the treatment [3] | side effects [3]
NC(N)=NCCC[C@@H](N)C(=O)N[C@@H](CCCN=C(N)N)C(=O)N1CCC[C@H]1C(=O)N1C[C@H](O)C[C@H]1C(=O)NCC(=O)N[C@@H](Cc1cccs1)C(=O)N[C@@H](CO)C(=O)N1Cc2ccccc2C[C@@H]1C(=O)N1[C@H](C(=O)N[C@@H](CCCN=C(N)N)C(=O)O)C[C@@H]2CCCC[C@@H]21 [icatibant, H-D-Arg-Arg-Pro-Hyp-Gly-Thi-Ser-D-Tic-Oic-Arg-OH] | 3 days | 40% | No further significant increase in inhibitory effect | lasted for over a week | reduced the intensity of pain in the knee to a greater extent than the placebo | up to 3 months | negligible or no side effects
Cc1cc(C)c2cccc(OCc3c(Cl)ccc(S(=O)(=O)NC4(C(=O)N5CCN(C(=O)[C@@H](N)CCC[N+](C)(C)C)CC5)CCOCC4)c3Cl)c2n1 [MEN16132, (4-(S)-Amino-5-(4-{4-[2,4-dichloro-3-(2,4-dimethyl-quinoline-8-yloxymethyl)-benzenesulphonylamino]-tetrahydro-pyran-4-carbonyl}-piperazin-1-yl)-5-oxo-pentyl]-trimethyl-ammonium] | 3 days | 55% | No further significant increase in inhibitory effect | lasted for over a week |  |  | 
